The numbers were not newly measured in patent publication US4168274A, “Production of a peracid and an oxirane” (priority 1975, dated 1979), which cites them from elsewhere.

For this data set the following is noted: Table I, carboxylic acids and solvents, symbols .infin., v, s, δ.
Take `CCCOCCC` [di n-propyl ether]: the solubility in water result is on record as “δ”.

Regarding `CCCCCC(=O)O` [caproic], the solubility in water entry is “δ”.

As to `O=[N+]([O-])c1ccccc1` [nitrobenzene], the solubility in water result is “δ”.

Take `CCCl` [chloroethane]: the solubility in water result is “δ”.

`CC(Cl)CCl` (centres unmarked) [propylene dichloride]: the solubility in water entry was “δ”.

On to `CCCCCCC(=O)O` [n.heptoic], for which the solubility in water result is listed as “δ”.

As to `ClC(Cl)C(Cl)Cl` [tetrachloroethane], the solubility in water result is “δ”.

With `CCOC(=O)CC` [ethyl propionate], the solubility in water entry is given as “δ”.
